≈ marks a conversion by molar mass, not a printed value.

The values below come from patent US20250236616A1, “IMMUNOMODULATING AZALIDES” (Zoetis Services LLC, priority 2021, published 2025).

Assay [1] deals with M. haemolytica (strain: OSU-012103-BHI). Put plainly: Bovine M. haemolytica intratracheal lung challenge model, mortality. The assay is classed as in vivo. To be noted: M. haemolytica challenge Day 0; subcutaneous Day -1; M9 10 mg/kg, Draxxin 2.5 mg/kg; 6 animals. The method, then:
To evaluate immunomodulation effects and potential biomarkers, a bovine M. haemolytica (strain: OSU-012103-BHI) intratracheal lung challenge model study was completed utilizing M9 treatment in the presence and absence of bacterial challenge and a Draxxin® comparator. […] Animals were administered 0.05 mL/kg saline (T01), 10 mg/kg M9 (T02); Draxxin 2.5 mg/kg (T03) and 10 mg/kg M9 (T04) by subcutaneous injection on Day-1. Dose was based on body weight. Animals were challenge on Day 0 with the exception of T04. Blood was collected longitudinally throughout the study for biomarker evaluation panel (e.g., IL-6 and CD163) including two baseline samples prior to treatment. FIG. 4A depicts the area under the curve concentrations for IL-6 protein for individual animals against percent lung lesion scores and FIG. 4B depicts the CD163 fold change area under the curve for individual animals against percent lung lesion scores. Data is represented as percent lung lesion scores against the area under the curve (AUC) for IL-6 protein (immunoassay expressed in pg/mL) and CD163 (flow cytometric mean fluorescent intensity (MFI) in fold change from baseline). In both assays, a 2-fold change is typically considered to be relevant.

In the next assay the test system is E. coli. Put plainly: MIC, E. coli. Format: cell-based. To be noted: Escherichia coli. The source says: Primary screening of the compounds of the invention included the evaluation of antibacterial activity of analogs through determination of microbial inhibition concentration (MIC) as per CLSI guidelines. The screening panel included the relevant BRD pathogens: 1) M. haemolytica (e.g., 12726, 46571 and 49023, all AHDRCC; and 33396 (ATCC)); and 2) P. multocida (e.g., 34135 and 46572 (both AHDRCC) and 43137 (ATCC)). In some instances, H. somni (A700025K) pathogens were also included in the screening panel. The AHDRCC strains originated from the Zoetis BRD/SRD surveillance program and refer to the Animal Health Development and Research Culture Collection. In addition, the screen assessed S. aureus (29213 ATCC) as a representative Gram-positive isolate, E.faecalis (19433 ATCC) as a commensal gram-positive gastrointestinal bacterium and E. coli (100, 3110 and 25922 (ATCC)) for the evaluation of efflux potential. The screening panel BRD pathogens were assessed in determining antibacterial activity of the Formula (1) compounds.
All relevant BRD pathogens were initially screened at a top concentration of 64 μg/mL of a Formula (1) compound in an eleven-point dilution series. […] If an Example was purified further, the MICs moved […] essentially two dilutions across all strains tested in the screening panel.
In-Vitro MIC Model Compounds were analyzed for antibacterial activity against a panel of animal health specific gram-positive and gram-negative clinical strains by diluting compounds in DMSO to an appropriate stock concentration to determine the Minimal Inhibitory Concentration (MIC) via a semi-automated broth micro-dilution method (CLSI reference method) with QC strains and anti-microbial agent(s). Specifically, bacteria were grown overnight on TSA w/5% sheep blood agar plates and diluted in saline buffer to a McFarland Standard 0.5, then further diluted in cation-ion adjusted Mueller Hinton Broth to a final concentration of approximately 5×10^5 CFU/mL. 100 μL of inoculated media was added to 96-well plate(s) with 3 μL of serially diluted compound in each row. Depending on strain (see CLSI reference method), bacteria were incubated 18-22 hours at 35-37° C. in ambient air, with 5% CO2 or anaerobically (up to 48 hours).

Another assay concerns P. multocida. Nature of the assay: Murine P. multocida intranasal challenge study, treatment 18 hours after challenge, survival. Format: in vivo, mice. Conditions: subcutaneous 18 hours after challenge (5×10^3 CFU/mouse); tulathromycin 16 mg/kg, M9 32 mg/kg, ceftiofur 9 mg/kg. The method, then:
In one murine P. multocida intranasal challenge study, mice were administered tulathromycin (16 mg/kg; T02), M9 (32 mg/kg; T03), or ceftiofur (9 mg/kg; T04) by subcutaneous injection 18 hours after bacterial challenge (5×10^3 CFU/mouse) for lung tissue RNA sequence analysis. Survival at Day 7 was about 80%, 50%, and 90% for T02, T03, and T04, respectively, compared to placebo at 0%. Differential gene expression from total lung tissue RNA sequence analysis indicated at least 226 unique genes were up or down regulated (with significance) for T03. Output from ingenuity pathway analysis of these unique genes predicted major upstream regulators of the involved pathways. Data was analyzed based on the number of genes being modulated in the same direction that were associated with a given upstream regulator. An activation z-score of 2 or greater is considered significant and the direction change is indicated by + (activated) or -(inhibited). The top 5 pathways included: IL-9 signaling, glucocorticoid receptor signaling, prolactin signaling, JAK STAT signaling, and IL-17 signaling. The top 6 upstream regulators (activation z-score) included: lipopolysaccharide (−6.725), TNF (−4.669), IFNγ (−5.759), IL-1β (−5.947), STAT1 (−2.787), and poly rl: rC-RNA (−5.289). Even though this study was run in the murine model, the top upstream regulators identified as being modulated by M9 include an almost ubiquitous overlap with the pathways identified in the natural disease study as being key mediators in BRD, and therefore is modulating highly relevant pathways in BRD pathobiology.

A further assay deals with IL-6. Nature of the assay: IL-6 biomarker in bovine M. haemolytica challenge. The assay is classed as in vivo. The method, then:
Cytokine Detection—An MSD U-Plex cytokine assay was developed following the MSD U-Plex protocol guide and included biotinylated capture antibodies against: bovine Interleukin (IL)-1β (Biorad), bovine IL-6 (R&D Systems) and bovine tumor necrosis factor (TNF)-α (R&D Systems). The anti-IL-1β antibody was biotinylated using EZ-Link Sulfo-NHS-Biotin (Thermo Scientific) at a challenge ratio of 1:20 according to manufacturer instructions. Assay calibrators (Kingfisher) were diluted to a concentration of […] in control lithium heparin plasma, followed by 4-fold serial dilutions into plasma. The detection antibodies were sulfo-tagged following the MSD quick guide conjugation protocol using a challenge ratio of 1:20. Antibodies were used at the following concentrations: anti-IL-1β at 1 μg/mL, anti-IL-6 at 1 μg/mL and anti-TNF-α at 0.5 μg/mL. Cytokines were quantified according to manufacturer's instructions using a chemiluminescent readout. In brief, 0.5 mL of all biotinylated antibodies were diluted to 10 μg/mL with Diluent 100 and paired to their respective linkers by adding 750 μL of supplied Linker solution and incubated for 30 minutes followed by addition of Stop solution for another 30 minutes. […] Plates were washed a further three times before addition of 150 μL 2X Read buffer and read immediately on the SI6000 instrument (MSD). […]

Broadly, the MIC is the lowest concentration that inhibits growth of the organism. The low end stands for inhibition by little substance, the high end for a need for much substance. For `CCCNC[C@]1(O)[C@H](C)O[C@@H](O[C@H]2[C@H](C)[C@@H](O[C@@H]3O[C@H](C)C[C@H](N(C)C)[C@H]3O)[C@](C)(O)C[C@@H](C)CN[C@H](C)[C@@H](O)[C@](C)(O)[C@@H](CC)OC(=O)[C@@H]2C)C[C@@]1(C)OC` [tulathromycin, (2R,3S,4R,5R,8R,10R,11R,12S,13S,14R)-11-(((2S,3R,4S,6R)-4-(dimethylamino)-3-hydroxy-6-methyltetrahydro-2H-pyran-2-yl)oxy)-2-ethyl-3,4,10-trihydroxy-13-(((2R,4R,5S,6S)-5-hydroxy-4-methoxy-4,6-dimethyl-5-((propylamino)methyl)tetrahydro-2H-pyran-2-yl)oxy)-3,5,8, 10, 12, 14-hexamethyl-1-oxa-6-azacyclopentadecan-15-one], in assay [1], the Mortality is given as 0/6. For the same compound, the MIC in the assay with E. coli (E. coli 25922) was determined as 2 µg/mL (≈ 2.48 µM); against E. coli (E. coli W3110) it was 8 µg/mL (≈ 9.92 µM). For the same compound, the “Survival at Day 7” value with P. multocida is “about 80%”. Moreover, in the assay on IL-6, the IL-6 levels result is reported as “significantly reduced IL-6 levels”.
